By IC50 is commonly meant the concentration that gives 50% inhibition. A higher IC50 goes with a need for much substance. For orientation: Ki means a dissociation constant, usually derived from enzyme kinetics or from competition with a known ligand. The low end stands for a stronger hold on the target, the high end for a looser hold on the target.

Five compounds from BindingDB's records for doi:10.3109/14756366.2010.510471 (Suven Life Sciences, 2011) can be followed below.

Bounds are passed on as bounds.

For one assay, the target named is Cytochrome P450 2D6 (Homo sapiens, UniProt P10635). The experiment in a line: Isoform-Selective Assay. The method, then: (§1) The cytochrome P450 inhibitory potential was determined using isoform-selective assays and heterologously expressed human CYP2D6 and CYP3A4.
Another assay deals with Cytochrome P450 3A4 (Homo sapiens, UniProt P08684). Put plainly: Isoform-Selective Assay. The method, then: as §1
In assay [1] the target is 5-hydroxytryptamine receptor 6 (Homo sapiens, UniProt P50406). The experiment in a line: Radioligand Binding Assay. The conditions noted are these: pH 7.4; 37 °C. The method, then:
Briefly, receptor source and radioligand used were human recombinant expressed in HEK-293 cells and [3H] LSD (60–80 Ci/mmol), respectively. The final ligand concentration was 1.5 nM and non-specific determinant was methiothepin mesylate (0.1 μM). The reference compound and positive control was methiothepin mesylate. Reactions were carried out in 50 mM TRISHCl (pH 7.4) containing 10 mM MgCl2, 0.5 mM EDTA for 60 min at 37 °C. The reaction was terminated by rapid vacuum filtration onto glass fibre filters.

5-hydroxytryptamine receptor 6, sequence (P50406 whole entry): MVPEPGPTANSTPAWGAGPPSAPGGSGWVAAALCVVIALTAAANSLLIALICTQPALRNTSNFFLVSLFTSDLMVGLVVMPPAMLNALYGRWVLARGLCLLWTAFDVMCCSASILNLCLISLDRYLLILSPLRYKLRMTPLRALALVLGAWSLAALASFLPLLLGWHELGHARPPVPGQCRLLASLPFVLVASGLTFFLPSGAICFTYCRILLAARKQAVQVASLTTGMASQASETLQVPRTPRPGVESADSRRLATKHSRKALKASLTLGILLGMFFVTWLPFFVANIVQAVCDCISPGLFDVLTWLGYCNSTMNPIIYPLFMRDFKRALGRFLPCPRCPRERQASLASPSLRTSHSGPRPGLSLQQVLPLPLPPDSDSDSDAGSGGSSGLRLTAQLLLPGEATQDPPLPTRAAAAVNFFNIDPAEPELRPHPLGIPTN
Cytochrome P450 2D6, sequence (P10635 whole entry, canonical isoform): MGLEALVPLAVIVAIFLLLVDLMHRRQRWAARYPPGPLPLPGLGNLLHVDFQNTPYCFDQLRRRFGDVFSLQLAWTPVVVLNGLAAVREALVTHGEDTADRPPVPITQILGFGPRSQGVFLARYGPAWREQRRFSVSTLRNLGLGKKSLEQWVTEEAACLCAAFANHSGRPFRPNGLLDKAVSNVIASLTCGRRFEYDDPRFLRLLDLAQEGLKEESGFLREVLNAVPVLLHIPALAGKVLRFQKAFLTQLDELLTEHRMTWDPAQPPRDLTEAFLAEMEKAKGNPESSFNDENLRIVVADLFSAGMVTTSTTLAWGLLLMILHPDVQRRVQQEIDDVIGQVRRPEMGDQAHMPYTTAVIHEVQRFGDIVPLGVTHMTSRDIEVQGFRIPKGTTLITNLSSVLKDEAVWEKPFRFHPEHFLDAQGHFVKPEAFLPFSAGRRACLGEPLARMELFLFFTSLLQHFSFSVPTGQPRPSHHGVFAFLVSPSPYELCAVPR
Cytochrome P450 3A4, sequence (P08684 whole entry, canonical isoform): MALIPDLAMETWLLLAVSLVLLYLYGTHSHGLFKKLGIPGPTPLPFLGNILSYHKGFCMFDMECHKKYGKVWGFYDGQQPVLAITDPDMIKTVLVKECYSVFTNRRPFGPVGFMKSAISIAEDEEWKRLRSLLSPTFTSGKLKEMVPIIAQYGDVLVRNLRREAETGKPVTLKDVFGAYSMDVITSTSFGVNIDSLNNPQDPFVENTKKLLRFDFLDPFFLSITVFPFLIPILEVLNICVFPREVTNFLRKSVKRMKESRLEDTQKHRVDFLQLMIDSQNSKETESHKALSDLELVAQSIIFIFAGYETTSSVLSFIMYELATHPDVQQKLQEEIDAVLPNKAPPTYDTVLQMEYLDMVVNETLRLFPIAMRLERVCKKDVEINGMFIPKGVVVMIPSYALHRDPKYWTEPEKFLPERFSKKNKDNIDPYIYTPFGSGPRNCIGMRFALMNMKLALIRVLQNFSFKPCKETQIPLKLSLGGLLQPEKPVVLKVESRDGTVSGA

As for `CN(C)CCOc1c2n(c3cc(Cl)ccc13)S(=O)(=O)c1ccccc1-2` [3-Chloro-10-(2-N,N-Dimethylaminoethoxy)-5-Thia-4-b-azaindeno (8b)], the IC50 against Cytochrome P450 2D6 was found to be 5.06 µM; against Cytochrome P450 3A4, 37.1 µM.

As to `CN(C)CCOc1c2n(c3ccc(Cl)cc13)S(=O)(=O)c1ccccc1-2` [2-Chloro-10-(2-N,N-Dimethylaminoethoxy)-5-Thia-4-b-azaindeno[2,1-a]indene-5,5-Dioxide (8c)], the inhibitory constant (Ki) in assay [1] was 0.464 µM.

With `CN(C)CCOc1c2n(c3ccccc13)S(=O)(=O)c1ccccc1-2` [10-(2-N,N-Dimethylaminoethoxy)-5-Thia-4-b-azaindeno[2,1-a]indene-5,5-Dioxide (8a)], the IC50 against Cytochrome P450 2D6 was 7.65 µM; on Cytochrome P450 3A4, greater than 45 µM.

The compound `COc1ccc2c(c1)c(OCCN(C)C)c1n2S(=O)(=O)c2ccccc2-1` [2-Methoxy-10-(2-N,N-Dimethylaminoethoxy)-5-Thia-4b-azaindeno[2,1-a]indene-5,5-Dioxide (8d)] came in with a Ki in assay [1] of 0.127 µM.

Turning to `CN(C)CCOc1c2n(c3cccc(F)c13)S(=O)(=O)c1ccccc1-2` [1-Fluoro-10-(2-N,N-Dimethylaminoethoxy)-5-Thia-4-b-azaindeno [2,1-a]indene-5,5-Dioxide (8o)], the Ki in assay [1] was greater than 0.5 µM.
